Experimental data published in US4560662A, “Streptomyces antibioticus ATCC 31771 and process for obtaining same” (priority 1981, dated 1985).
Converted amounts (≈) assume the structure as drawn. Where two headings read alike, the source gives them in different places.

Legend:
[1] = tested on: Staphylococcus aureus ATCC 6538 P; experiment: Bacteriostatic power in solid medium (MIC), aerobic Gram positive; type: cell-based; settings: for MIC: Staphylococcus aureus, ATCC6538, read-out: minimum inhibiting concentration
[2] = tested on: Staphylococcus aureus LRP 14; experiment: as above; type: cell-based; settings: for MIC: Staphylococcus aureus, LRP14, read-out: minimum inhibiting concentration
[3] = tested on: Streptococcus faecalis LRP 7; experiment: as above; type: cell-based; settings: for MIC: Enterococcus faecalis, LRP7, read-out: minimum inhibiting concentration
[4] = tested on: Streptococcus faecalis sub. zymogenes ATCC 12958; experiment: as above; type: cell-based; settings: for MIC: Enterococcus faecalis, ATCC12958, read-out: minimum inhibiting concentration
[5] = tested on: Streptococcus pneumonieae ATCC 6303; experiment: as above; type: cell-based; settings: for MIC: Streptococcus, ATCC6303, read-out: minimum inhibiting concentration
[6] = tested on: Streptococcus pneumonieae LRP 52; experiment: as above; type: cell-based; settings: for MIC: Streptococcus, LRP52, read-out: minimum inhibiting concentration
[7] = tested on: Streptococcus pneumonieae LRP 53; experiment: as above; type: cell-based; settings: for MIC: Streptococcus, LRP53, read-out: minimum inhibiting concentration
[8] = tested on: Streptococcus pyogenes ATCC 8668; experiment: as above; type: cell-based; settings: for MIC: Streptococcus pyogenes, ATCC8668, read-out: minimum inhibiting concentration
[9] = tested on: Streptococcus pyogenes LRP 197; experiment: as above; type: cell-based; settings: for MIC: Streptococcus pyogenes, LRP197, read-out: minimum inhibiting concentration
[10] = tested on: Corynebacterium diphteriae LRP 24; experiment: as above; type: cell-based; settings: for MIC: Corynebacterium, LRP24, read-out: minimum inhibiting concentration
[11] = tested on: Micrococcus luteus ATCC 9341; experiment: as above; type: cell-based; settings: for MIC: Micrococcus luteus, ATCC9341, read-out: minimum inhibiting concentration
[12] = tested on: Micrococcus luteus ATCC 15957; experiment: as above; type: cell-based; settings: for MIC: Micrococcus luteus, ATCC15957, LRP 193, Erythromicina resistant, read-out: minimum inhibiting concentration
From the text: (§1) Turning now to an examination of the novel macrolide antibiotics produced according to the present invention, they are all characterized by a bacteriostatic spectrum like that of erythromycin and by the stability in acidic environment, whereby their direct administration by oral route is possible, without having recourse to esters and/or salts, showing the afore mentioned disadvantages and problems. The above is confirmed by the following Table 1, wherein the MIC values are reported, indicating the bacteriostatic power, and by the Table 2, giving the stability values in acidic environment. Without having to be construed in a limiting sense, it seems plausible that the greater stability of the macrolide. antibiotics of the present invention can be attributed to the presence in the molecule of the antibiotic of the neutral sugar oleandrose (J. Antib. (1976) XXIX (7), 728).
(§2) Bacteriostatic power in solid medium of Erythromycin A, Erythromycin B,
(§3) aerobic and anaerobic bacteria, Gram positive and Gram negative minimum
(§4) inhibiting concentrations expressed in mcg/ml.

[13] = tested on: Staphylococcus aureus ATCC 14154; experiment: as above; type: cell-based; settings: for MIC: Staphylococcus aureus, ATCC14154, LRP 78, Erythromicina resistant, read-out: minimum inhibiting concentration
From the text: as §1, §2, §3, §4

[14] = tested on: Bacillus subtilis LRP 25; experiment: as above; type: cell-based; settings: for MIC: Bacillus subtilis, LRP25, read-out: minimum inhibiting concentration
[15] = tested on: Haemophilus influenzae ATCC 19418; experiment: Bacteriostatic power in solid medium (MIC), aerobic Gram negative; type: cell-based; settings: for MIC: Haemophilus influenzae, ATCC19418, LRP 213, read-out: minimum inhibiting concentration
From the text: as §1, §2, §3, §4

[16] = tested on: Pseudomonas aeruginosa LRP 9; experiment: as above; type: cell-based; settings: for MIC: Pseudomonas aeruginosa, LRP9, read-out: minimum inhibiting concentration
From the text: as §1, §2, §3, §4

[17] = tested on: Shigella sonnei LRP 5; experiment: as above; type: cell-based; settings: for MIC: Shigella sonnei, LRP5, read-out: minimum inhibiting concentration
From the text: as §1, §2, §3, §4

[18] = tested on: Neisseria Gonorrhoeae ATCC 19424; experiment: as above; type: cell-based; settings: for MIC: Neisseria gonorrhoeae, ATCC19424, read-out: minimum inhibiting concentration
[19] = tested on: Escherichia coli LRP 50; experiment: as above; type: cell-based; settings: for MIC: Escherichia coli
[20] = tested on: Klebsiella pneumoniae LRP 54; experiment: as above; type: cell-based; settings: for MIC: Klebsiella pneumoniae, LRP54, read-out: minimum inhibiting concentration
[21] = tested on: Proteus vulgaris ATCC 6380; experiment: as above; type: cell-based; settings: for MIC: Proteus vulgaris, ATCC6380, read-out: minimum inhibiting concentration
[22] = tested on: Salmonella typhi LRP 8; experiment: as above; type: cell-based; settings: for MIC: Salmonella enterica, TYPHI, read-out: minimum inhibiting concentration
[23] = tested on: Acholeplasma laidlawii ATCC 23206; experiment: as above; type: cell-based; settings: for MIC: Acholeplasma laidlawii, ATCC23206, read-out: minimum inhibiting concentration
[24] = tested on: Mycoplasma hominis I ATCC 14097; experiment: as above; type: cell-based; settings: for MIC: Metamycoplasma hominis, ATCC14097, read-out: minimum inhibiting concentration
[25] = tested on: Clostridium perfrigens ATCC 3624; experiment: Bacteriostatic power in solid medium (MIC), anaerobic; type: cell-based; settings: for MIC: Clostridium, ATCC3624, LRP 206, read-out: minimum inhibiting concentration
[26] = tested on: Bacteroides fragilis ATCC 23745; experiment: as above; type: cell-based; settings: for MIC: Bacteroides fragilis, ATCC23745, read-out: minimum inhibiting concentration
[27] = tested on: Fusobacterium necrophorum ATCC 27852; experiment: as above; type: cell-based; settings: for MIC: Fusobacterium necrophorum, ATCC27852, read-out: minimum inhibiting concentration
[28] = physchem; type: physicochemical; settings: for half-life: acidic environment
From the text: t 1/2 represents the half life time of the antibiotics as determined by
high pressure liquid phase chromatography (HPLC).

[29] = Relative solubility in water phase (extraction, TLC and HPLC control); type: physicochemical; settings: relative to P 15148, P 15149 and P 15153; alkaline aqueous phase
From the text: Before each extraction the pH of the aqueous phase is brought again to 9.

## CO[C@H]1C[C@H](O[C@H]2[C@H](C)[C@@H](O[C@@H]3O[C@H](C)C[C@H](N(C)C)[C@H]3O)[C@](C)(O)C[C@@H](C)C(=O)[C@H](C)[C@@H](O)[C@@H](C)[C@@H](CCO)OC(=O)[C@@H]2C)O[C@@H](C)[C@@H]1O [P 15150, 3-O-oleandrosyl-5-O-desosaminyl-15-hydroxyerythronolide B]
[1]
  MIC: 3.12 mg/L (≈ 4.33 µM)
[2]
  MIC: 3.12 mg/L (≈ 4.33 µM)
[3]
  MIC: 6.25 mg/L (≈ 8.68 µM)
[4]
  MIC: 3.12 mg/L (≈ 4.33 µM)
[5]
  MIC: 0.195 mg/L (≈ 0.271 µM)
[6]
  MIC: 0.195 mg/L (≈ 0.271 µM)
[7]
  MIC: 0.39 mg/L (≈ 0.542 µM)
[8]
  MIC: 0.097 mg/L (≈ 0.135 µM)
[9]
  MIC: 0.097 mg/L (≈ 0.135 µM)
[10]
  MIC: 0.097 mg/L (≈ 0.135 µM)
[11]
  MIC: 0.195 mg/L (≈ 0.271 µM)
[12]
  MIC: > 25 mg/L
[13]
  MIC: > 25 mg/L
[14]
  MIC: 3.12 mg/L (≈ 4.33 µM)
[15]
  MIC: > 25 mg/L
[16]
  MIC: > 25 mg/L
[17]
  MIC: > 25 mg/L
[18]
  MIC: 0.195 mg/L (≈ 0.271 µM)
[19]; LRP50, read-out: minimum inhibiting concentration
  MIC: > 25 mg/L
[20]
  MIC: > 25 mg/L
[21]
  MIC: > 25 mg/L
[22]
  MIC: 25 mg/L (≈ 34.7 µM)
[23]
  MIC: 6.25 mg/L (≈ 8.68 µM)
[24]
  MIC: > 25 mg/L
[25]
  MIC: 6.25 mg/L (≈ 8.68 µM)
[26]
  MIC: > 25 mg/L
[27]
  MIC: > 25 mg/L
[28]; pH 2, read-out: t 1/2
  half-life: > 100 h
[28]; pH 3, read-out: t 1/2
  half-life: > 100 h
[28]; pH 4, read-out: t 1/2
  half-life: > 100 h
[29]
  solubility in water phase: more soluble than the others in water phase

## CC[C@H]1OC(=O)[C@H](C)[C@@H](O[C@H]2C[C@@](C)(OC)[C@@H](O)[C@H](C)O2)[C@H](C)[C@@H](O[C@@H]2O[C@H](C)C[C@H](N(C)C)[C@H]2O)[C@](C)(O)C[C@@H](C)C(=O)[C@H](C)[C@@H](O)[C@]1(C)O [Erythromycin A, reference compound]
[1]
  MIC: 0.049 mg/L (≈ 0.0668 µM)
[2]
  MIC: 0.049 mg/L (≈ 0.0668 µM)
[3]
  MIC: 0.097 mg/L (≈ 0.132 µM)
[4]
  MIC: 0.195 mg/L (≈ 0.266 µM)
[5]
  MIC: 0.012 mg/L (≈ 0.0164 µM)
[6]
  MIC: 0.012 mg/L (≈ 0.0164 µM)
[7]
  MIC: 0.012 mg/L (≈ 0.0164 µM)
[8]
  MIC: 0.012 mg/L (≈ 0.0164 µM)
[9]
  MIC: 0.012 mg/L (≈ 0.0164 µM)
[10]
  MIC: 0.006 mg/L (≈ 0.00818 µM)
[11]
  MIC: 0.006 mg/L (≈ 0.00818 µM)
[12]
  MIC: > 25 mg/L
[13]
  MIC: > 25 mg/L
[14]
  MIC: 0.049 mg/L (≈ 0.0668 µM)
[15]
  MIC: 3.12 mg/L (≈ 4.25 µM)
[16]
  MIC: > 25 mg/L
[17]
  MIC: 12.5 mg/L (≈ 17 µM)
[18]
  MIC: 0.049 mg/L (≈ 0.0668 µM)
[19]; LRP50, solid medium, LRP 50, read-out: minimum inhibiting concentration
  MIC: 6.25 mg/L (≈ 8.52 µM)
[20]
  MIC: 25 mg/L (≈ 34.1 µM)
[21]
  MIC: > 25 mg/L
[22]
  MIC: 12.5 mg/L (≈ 17 µM)
[23]
  MIC: 0.097 mg/L (≈ 0.132 µM)
[24]
  MIC: > 25 mg/L
[25]
  MIC: 1.56 mg/L (≈ 2.13 µM)
[26]
  MIC: 0.195 mg/L (≈ 0.266 µM)
[27]
  MIC: 1.56 mg/L (≈ 2.13 µM)
[28]; pH 2
  half-life: 0.0333 h
[28]; pH 3
  half-life: 0.1 h

## 3-O-oleandrosyl-5-O-desosaminyl-(8S)-8,19-epoxyerythronolide B [P 15153]
[1]; solid medium, LRP 39
  minimum inhibiting concentration: 0.195 mg/L
[2]; solid medium, LRP 14, Penycilline resistant
  minimum inhibiting concentration: 0.195 mg/L
[3]; solid medium, LRP 7
  minimum inhibiting concentration: 0.78 mg/L
[4]; solid medium, LRP 61
  minimum inhibiting concentration: 0.39 mg/L
[5]; solid medium, LRP 35
  minimum inhibiting concentration: 0.049 mg/L
[6]; solid medium, LRP 52
  minimum inhibiting concentration: 0.049 mg/L
[7]; solid medium, LRP 53
  minimum inhibiting concentration: 0.024 mg/L
[8]; solid medium, LRP 34
  minimum inhibiting concentration: 0.049 mg/L
[9]; solid medium, LRP 197
  minimum inhibiting concentration: 0.049 mg/L
[10]; solid medium, LRP 24
  minimum inhibiting concentration: 0.024 mg/L
[11]; solid medium, LRP 6
  minimum inhibiting concentration: 0.024 mg/L
[12]; LRP 193, Erythromicina resistant
  minimum inhibiting concentration: > 25 mg/L
[13]; LRP 78, Erythromicina resistant
  minimum inhibiting concentration: > 25 mg/L
[14]; solid medium, LRP 25
  minimum inhibiting concentration: 0.195 mg/L
[15]; LRP 213
  minimum inhibiting concentration: 12.5 mg/L
[16]
  minimum inhibiting concentration: > 25 mg/L
[17]
  minimum inhibiting concentration: > 25 mg/L
[18]; solid medium, LRP 214
  minimum inhibiting concentration: 0.195 mg/L
[19]; solid medium, LRP 50
  minimum inhibiting concentration: 25 mg/L
[20]; solid medium, LRP 54
  minimum inhibiting concentration: > 25 mg/L
[21]; solid medium, LRP 13
  minimum inhibiting concentration: > 25 mg/L
[22]; solid medium, LRP 8
  minimum inhibiting concentration: 25 mg/L
[23]; solid medium, LRP 204
  minimum inhibiting concentration: 1.56 mg/L
[24]; solid medium, LRP 211
  minimum inhibiting concentration: > 25 mg/L
[25]; LRP 206
  minimum inhibiting concentration: 3.12 mg/L
[26]; solid medium, LRP 205, anaerobic
  minimum inhibiting concentration: 6.25 mg/L
[27]; solid medium, LRP 210, anaerobic
  minimum inhibiting concentration: 25 mg/L
[28]; pH 2.0, 25° C.
  t 1/2: 65 h
